Reference: the CheMixHub ionic liquid set

Experiment: xn = mol fraction of the nth substance listed

CCCCn1cc[n+](CCOCCOCCOCCOCC[n+]2ccn(CCCC)c2)c1.N#C[N-]C#N.N#C[N-]C#N + CC[n+]1ccn(C)c1.N#C[N-]C#N + O=S(=O)([N-]S(=O)(=O)C(F)(F)F)C(F)(F)F.[Li+]
100 kPa, x1 = 0.2104, x2 = 0.6943
Conditions | electrical conductivity [S/m]
298 K | 0.471
303 K | 0.549
313 K | 0.79
323 K | 1.05
333 K | 1.37
343 K | 1.67

F[B-](F)(F)F.[Li+] + CC[n+]1ccn(C)c1.O=S(=O)([N-]S(=O)(=O)C(F)(F)F)C(F)(F)F
electrical conductivity [S/m], 101 kPa
Conditions | x2 = 0.7088 | x2 = 0.7396 | x2 = 0.8073 | x2 = 0.8856 | x2 = 0.9623
288.15 K | – | 0.238 | 0.31 | 0.431 | 0.542
298.15 K | 0.295 | 0.384 | 0.489 | 0.651 | 0.807
333.15 K | 1.01 | 1.18 | 1.4 | 1.72 | 2.03

O=C1OCCO1 + CC[n+]1ccn(C)c1.O=S(=O)([N-]S(=O)(=O)C(F)(F)F)C(F)(F)F
100 kPa
Conditions | electrical conductivity [S/m] | viscosity [mPa·s]
293.15 K, x1 = 0.8163 | – | 5
293.15 K, x1 = 0.98 | 0.62 | –
303.15 K, x1 = 0.5263 | – | 11.5
303.15 K, x1 = 0.7476 | – | 6.1
313.15 K, x1 = 0.95 | 1.42 | –
333.15 K, x1 = 0.8163 | – | 2.4
333.15 K, x1 = 0.95 | 1.84 | –
343.15 K, x1 = 0.5263 | – | 4.6
343.15 K, x1 = 1 | – | 1.16
353.15 K, x1 = 0.66 | 4.47 | –
353.15 K, x1 = 0.82 | 4.06 | –
353.15 K, x1 = 0.9467 | – | 1.33
353.15 K, x1 = 0.98 | 1.37 | –
363.15 K, x1 = 0.8163 | – | 1.56
373.15 K, x1 = 0.5263 | – | 3
373.15 K, x1 = 1 | – | 0.85
383.15 K, x1 = 0.7476 | – | 1.63
393.15 K, x1 = 0.7476 | – | 1.49
393.15 K, x1 = 0.9467 | – | 0.91

F[B-](F)(F)F.[Li+] + CC[n+]1ccn(C)c1.O=S(=O)([O-])C(F)(F)F
electrical conductivity [S/m], 101 kPa
Conditions | x1 = 0.007746 | x1 = 0.01537 | x2 = 0.9648 | x2 = 0.9746
288.15 K | 0.628 | 0.59 | – | 0.537
298.15 K | 0.908 | 0.855 | 0.796 | 0.797
333.15 K | 2.25 | 2.19 | 2.06 | 2.07

O=[N+]([O-])[O-].[Li+] + CC[n+]1ccn(C)c1.O=S(=O)([O-])C(F)(F)F
electrical conductivity [S/m], 101 kPa
Conditions | x2 = 0.8748 | x2 = 0.9165 | x2 = 0.9576 | x2 = 0.9746
288.15 K | 0.38 | 0.454 | 0.563 | 0.562
298.15 K | 0.587 | 0.68 | 0.818 | 0.816
333.15 K | 1.69 | 1.85 | 2.07 | 2.1
